Test results: article PMC9000625, “Target Design of Novel Histone Deacetylase 6 Selective Inhibitors with 2-Mercaptoquinazolinone as the Cap Moiety” (Molecules, 2022)
“And” between values parts separate entries of the source, which are not always exact repeats. Identical values can stand only once. Like-named read-outs stand apart in the source and are kept apart here.

Tests used:
SW620 cells = experiment: Antiproliferation, SW620; type: cell-based; conditions: Homo sapiens, SW-620; Colon
MCF-7 cells = experiment: Antiproliferative assay (CELLOMAX viability), MCF-7; type: cell-based, human; conditions: for IC50 / Emax: MCF-7, 48 h; for IC50: read-out: IC50 (µM), antiproliferative activity against MCF-7; for Emax: MCF7, highest concentration 250 µM, read-out: Imax (%)
Procedure: The MCF-7 cell line was obtained from Korean Cell Line Bank (KCLB, Seoul, Korea). The cells were cultured in vitro in DMEM (Invitrogen, Paisley, UK) containing 10% fetal bovine serum (Gibco, Thermo Fisher Scientific, Waltham, MA, USA) and 1% penicillin. Cells were treated with different concentrations of compounds (1–15) in a 1:3 the highest concentration was 250 µM (before dilution) and further incubated for 48 hrs. […] We evaluated the antiproliferative activity of compound 8 against a variety of cells.
The MCF-7 cell line was obtained from ATCC. The cells were cultured in vitro in DMEM (Invitrogen, Paisley, UK) containing 10% fetal bovine serum (Gibco, Thermo Fisher Scientific, Waltham, MA) and 1% penicillin. For cytotoxicity assays, MCF-7 cells were seeded into 96-well culture plates at […] in 0.1 mL of DMEM and incubated at 37 °C with 5% CO2 and 90% humidity. After 16 h, the cells were treated with drugs (250 μM, serially diluted up to three-fold) for 48 h. Cell viability was measured using the CELLOMAXTM Viability Assay kit (Precaregene Co., Seoul, Korea). UV absorption at 450 nm wavelength was measured using an Infinite M200 microplate reader (Tecan, Zürich, Switzerland). The IC50 values were calculated using Prism v7.0 (GraphPad Software Inc., La Jolla, CA). The inhibitory activity of the tested compounds was evaluated by an 8-point dose–response curve (DRC) analysis in triplicates.

HDAC4 = biological target: T1, HDAC4 (Homo sapiens, UniProt P56524); experiment: HDAC enzyme inhibition assay, HDAC4; type: biochemical; conditions: read-out: IC50 (µM) HDAC4 (Class IIa)
T1 construct: purchased PBS Biosciences [sic]

N2A cells = experiment: Antiproliferation, N2A; type: cell-based; conditions: Mus musculus, Brain
SKOV3 cells = experiment: Antiproliferation, SKOV3; type: cell-based; conditions: Homo sapiens, SK-OV-3; Ovarian
MDA-MB 231 cells = experiment: Antiproliferation, MDA-MB 231; type: cell-based; conditions: Homo sapiens, Breast
PANC1 cells = experiment: Antiproliferation, PANC1; type: cell-based; conditions: Homo sapiens, PANC-1; Pancreas
EMT 6 cells = experiment: Antiproliferation, EMT 6; type: cell-based; conditions: Mus musculus, EMT6; Breast
HDAC6 = biological target: T2, HDAC6 (Homo sapiens, UniProt Q9UBN7); experiment: HDAC enzyme inhibition assay, HDAC6; type: biochemical
T2 construct: purchased PBS Biosciences [sic]
T2 sequence (Q9UBN7 1-1215): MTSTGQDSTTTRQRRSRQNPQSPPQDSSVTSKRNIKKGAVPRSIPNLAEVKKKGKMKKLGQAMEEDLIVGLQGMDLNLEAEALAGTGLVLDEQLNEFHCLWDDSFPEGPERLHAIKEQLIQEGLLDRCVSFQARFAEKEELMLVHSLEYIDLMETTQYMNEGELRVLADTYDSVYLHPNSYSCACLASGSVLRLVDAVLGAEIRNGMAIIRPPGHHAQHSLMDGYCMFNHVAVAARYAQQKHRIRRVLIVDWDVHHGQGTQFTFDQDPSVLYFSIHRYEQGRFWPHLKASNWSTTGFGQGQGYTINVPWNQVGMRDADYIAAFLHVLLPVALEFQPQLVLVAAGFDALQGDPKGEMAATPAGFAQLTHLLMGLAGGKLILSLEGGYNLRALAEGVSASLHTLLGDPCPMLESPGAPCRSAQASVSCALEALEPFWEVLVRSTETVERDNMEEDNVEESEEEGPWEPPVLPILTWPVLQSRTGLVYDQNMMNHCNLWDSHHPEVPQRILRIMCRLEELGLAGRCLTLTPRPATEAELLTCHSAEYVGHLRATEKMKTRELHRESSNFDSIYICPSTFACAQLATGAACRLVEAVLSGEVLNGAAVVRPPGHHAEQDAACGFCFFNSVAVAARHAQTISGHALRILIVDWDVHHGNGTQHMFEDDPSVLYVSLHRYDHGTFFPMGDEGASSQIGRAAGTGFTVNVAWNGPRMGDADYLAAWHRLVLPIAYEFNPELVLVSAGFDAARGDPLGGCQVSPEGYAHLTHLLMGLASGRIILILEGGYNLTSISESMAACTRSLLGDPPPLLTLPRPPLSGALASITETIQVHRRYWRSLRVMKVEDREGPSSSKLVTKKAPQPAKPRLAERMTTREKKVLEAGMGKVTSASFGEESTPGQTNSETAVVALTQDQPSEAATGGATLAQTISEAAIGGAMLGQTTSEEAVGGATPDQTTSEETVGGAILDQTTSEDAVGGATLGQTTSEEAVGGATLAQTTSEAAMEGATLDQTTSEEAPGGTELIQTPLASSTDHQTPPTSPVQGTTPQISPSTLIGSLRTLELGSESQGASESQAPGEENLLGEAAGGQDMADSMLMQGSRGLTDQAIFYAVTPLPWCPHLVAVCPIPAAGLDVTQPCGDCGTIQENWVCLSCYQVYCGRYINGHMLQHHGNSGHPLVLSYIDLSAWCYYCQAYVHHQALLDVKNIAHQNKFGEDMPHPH
Procedure: (§1) The compounds were diluted to the indicated concentrations and mixed with HDAC enzymes (HDAC1, HDAC3, HDAC6, HDAC8, HDAC11) and the substrate for 1 h (PBS Biosciences). The fluorescence intensity was measured according to the manufacturer’s instructions.

Hepa1c1c7 cells = experiment: Antiproliferation, Hepa1c1c7; type: cell-based; conditions: Hepa-1c1c7; Liver
HDAC8 = biological target: T3, HDAC8 (Homo sapiens, UniProt Q9BY41); experiment: HDAC enzyme inhibition assay, HDAC8; type: biochemical; conditions: read-out: IC50 (µM) HDAC8 (Class I)
T3 construct: purchased PBS Biosciences [sic]
T3 sequence (Q9BY41 1-377): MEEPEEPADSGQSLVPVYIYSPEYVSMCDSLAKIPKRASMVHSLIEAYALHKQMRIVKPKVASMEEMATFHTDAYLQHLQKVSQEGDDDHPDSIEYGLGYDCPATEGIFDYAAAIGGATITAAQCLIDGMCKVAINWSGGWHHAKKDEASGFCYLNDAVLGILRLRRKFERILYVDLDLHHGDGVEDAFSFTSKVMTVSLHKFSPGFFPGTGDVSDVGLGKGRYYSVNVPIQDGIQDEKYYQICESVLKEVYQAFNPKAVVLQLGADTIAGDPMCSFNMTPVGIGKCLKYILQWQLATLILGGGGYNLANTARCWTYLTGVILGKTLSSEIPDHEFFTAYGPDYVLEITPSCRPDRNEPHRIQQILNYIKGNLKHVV
Procedure: as §1

HDAC11 = biological target: T4, HDAC11 (Homo sapiens, UniProt Q96DB2); experiment: HDAC enzyme inhibition assay, HDAC11; type: biochemical
T4 construct: purchased PBS Biosciences [sic]
T4 sequence (Q96DB2 1-347): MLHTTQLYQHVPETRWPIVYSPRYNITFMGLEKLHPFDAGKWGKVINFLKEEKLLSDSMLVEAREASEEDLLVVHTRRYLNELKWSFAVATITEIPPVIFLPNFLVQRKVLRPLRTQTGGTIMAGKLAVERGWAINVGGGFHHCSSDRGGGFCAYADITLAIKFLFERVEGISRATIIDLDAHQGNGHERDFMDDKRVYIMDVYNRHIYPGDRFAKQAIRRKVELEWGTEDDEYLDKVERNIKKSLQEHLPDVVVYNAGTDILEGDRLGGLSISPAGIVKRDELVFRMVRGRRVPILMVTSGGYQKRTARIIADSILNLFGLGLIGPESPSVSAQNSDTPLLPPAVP
Procedure: as §1

HDAC3 = biological target: T5, HDAC3 (Homo sapiens, UniProt O15379); experiment: HDAC enzyme inhibition assay, HDAC3; type: biochemical; conditions: read-out: IC50 (µM) HDAC3 (Class I)
T5 construct: purchased PBS Biosciences [sic]
Procedure: as §1

[1] = test system: acetylated tubulin (HDAC6 substrate) in N2a cells; experiment: Western blot of acetylated tubulin in N2a; type: cell-based; conditions: 6 h, 10, 2, and 0.2 µM
Procedure: (§2) MCF-7 and N2a cell lines were incubated with various concentrations of test agents for 6 h. Cell lysis and Western blot analyses were performed as previously described. Anti-acetylated tubulin antibody and horseradish peroxidase (HRP)-conjugated secondary antibodies (Santa Cruz Biotechnology) were used. Immunoreactive bands were visualized using enhanced chemiluminescence (Millipore, Burlington, MA, USA).
(§3) GAPDH was used as a loading control.

[2] = test system: acetylated tubulin (HDAC6 substrate) in MCF-7 cells; experiment: Western blot of acetylated tubulin in MCF-7; type: cell-based, human
Procedure: as §2, §3

T1 sequence (P56524 whole entry): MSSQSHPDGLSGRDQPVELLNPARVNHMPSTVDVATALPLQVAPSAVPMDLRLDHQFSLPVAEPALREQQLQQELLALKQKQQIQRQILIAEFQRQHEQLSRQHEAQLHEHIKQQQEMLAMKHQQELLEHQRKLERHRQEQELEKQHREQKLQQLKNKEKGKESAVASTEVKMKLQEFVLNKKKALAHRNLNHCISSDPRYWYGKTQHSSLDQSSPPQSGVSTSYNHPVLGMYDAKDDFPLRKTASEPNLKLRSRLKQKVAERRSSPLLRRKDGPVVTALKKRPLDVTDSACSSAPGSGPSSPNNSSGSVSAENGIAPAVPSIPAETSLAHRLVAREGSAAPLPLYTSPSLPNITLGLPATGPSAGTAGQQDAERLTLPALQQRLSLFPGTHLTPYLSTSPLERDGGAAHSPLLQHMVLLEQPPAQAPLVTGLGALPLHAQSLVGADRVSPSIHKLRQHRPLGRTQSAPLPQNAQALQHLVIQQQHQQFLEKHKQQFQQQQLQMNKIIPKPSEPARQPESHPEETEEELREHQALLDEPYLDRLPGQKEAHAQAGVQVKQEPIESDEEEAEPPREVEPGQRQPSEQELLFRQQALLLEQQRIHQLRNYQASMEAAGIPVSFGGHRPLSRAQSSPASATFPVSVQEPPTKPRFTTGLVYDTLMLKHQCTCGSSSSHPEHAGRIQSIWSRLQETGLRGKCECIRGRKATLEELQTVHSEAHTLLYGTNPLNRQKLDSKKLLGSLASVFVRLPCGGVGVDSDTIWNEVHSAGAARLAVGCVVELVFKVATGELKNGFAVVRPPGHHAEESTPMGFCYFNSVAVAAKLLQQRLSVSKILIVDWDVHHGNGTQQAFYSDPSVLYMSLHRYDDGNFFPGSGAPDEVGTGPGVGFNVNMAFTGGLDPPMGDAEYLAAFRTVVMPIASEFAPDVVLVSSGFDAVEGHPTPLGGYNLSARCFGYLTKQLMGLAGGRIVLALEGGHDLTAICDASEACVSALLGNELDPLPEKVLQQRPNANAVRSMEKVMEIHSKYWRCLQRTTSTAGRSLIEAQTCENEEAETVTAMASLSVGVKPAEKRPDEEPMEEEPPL
T5 sequence (O15379 whole entry): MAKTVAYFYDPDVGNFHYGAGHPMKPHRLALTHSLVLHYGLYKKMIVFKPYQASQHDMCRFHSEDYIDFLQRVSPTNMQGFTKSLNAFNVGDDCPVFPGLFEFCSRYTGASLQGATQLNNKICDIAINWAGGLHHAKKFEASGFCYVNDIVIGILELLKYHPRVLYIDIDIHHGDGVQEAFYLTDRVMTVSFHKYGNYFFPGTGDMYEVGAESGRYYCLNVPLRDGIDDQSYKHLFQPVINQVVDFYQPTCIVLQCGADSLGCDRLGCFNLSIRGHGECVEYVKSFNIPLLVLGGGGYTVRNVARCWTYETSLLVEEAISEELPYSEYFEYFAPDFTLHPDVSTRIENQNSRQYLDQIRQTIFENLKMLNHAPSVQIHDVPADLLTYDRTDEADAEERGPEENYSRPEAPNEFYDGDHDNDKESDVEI
T5 sequence (Q9Y618 395-489 partner limits assumed): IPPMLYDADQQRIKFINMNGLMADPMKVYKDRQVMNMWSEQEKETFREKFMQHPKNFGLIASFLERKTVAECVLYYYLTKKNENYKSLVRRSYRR

O=C(/C=C/c1cccc(S(=O)(=O)Nc2ccccc2)c1)NO [Belinostat, reference compound]
IC50 (SW620 cells): 14.9 ± 1.2 µM
IC50 (MCF-7 cells; Homo sapiens, MCF7, 48 h): 2.6 ± 1.4 µM
Emax (MCF-7 cells; Homo sapiens): 100%
IC50 (HDAC4): 2.7 ± 0.12 µM
IC50 (N2A cells): 3.66 ± 0.7 µM
IC50 (SKOV3 cells): 32.1 ± 5.5 µM
IC50 (MDA-MB 231 cells): 3.72 ± 0.5 µM
IC50 (PANC1 cells): 15.7 ± 2.3 µM
IC50 (EMT 6 cells): 11.3 ± 2.6 µM
IC50 (HDAC6; IC50 (µM) HDAC6 (Class IIb)): 0.2 ± 0.01 µM
IC50 (Hepa1c1c7 cells): 10.1 ± 0.9 µM

O=C(CSc1nc2ccccc2c(=O)n1Cc1ccccc1)NO [Compound 1]
melting point: 188 to 191 °C
Emax (MCF-7 cells; Homo sapiens): 20%

O=C(CSc1nc2ccccc2c(=O)n1Cc1ccc(F)cc1)NO [Compound 2]
Emax (MCF-7 cells; Homo sapiens): 11%

O=C(CSc1nc2ccccc2c(=O)n1Cc1cccc(F)c1)NO [Compound 3]
melting point: 177 to 180 °C
Emax (MCF-7 cells; Homo sapiens): 24%

O=C(CSc1nc2ccccc2c(=O)n1Cc1ccc(F)c(F)c1)NO [Compound 4]
melting point: 184 to 186 °C
Emax (MCF-7 cells; Homo sapiens): 23%

O=C(CSc1nc2ccccc2c(=O)n1Cc1ccccc1[N+](=O)[O-])NO [Compound 5]
melting point: 176 to 179 °C
Emax (MCF-7 cells; Homo sapiens): 17%

Cc1ccc(Cn2c(SCC(=O)NO)nc3ccccc3c2=O)cc1 [Compound 6]
melting point: 184 to 186 °C
Emax (MCF-7 cells; Homo sapiens): 22%

O=C(CCCCSc1nc2ccccc2c(=O)n1Cc1ccc(F)cc1)NO [Compound 8]
IC50 (HDAC8): 0.8 ± 0.01 µM
HDAC11 inhibition compared to Belinostat (in words) (HDAC11; dose-dependent): higher activity against HDAC11 compared to the reference
IC50 (HDAC11; read-out: IC50 (µM) HDAC11 (Class IV)): ~3 µM
IC50 (HDAC3): 2.7 ± 0.08 µM
melting point: 138 to 140 °C
IC50 (SW620 cells): 0.81 ± 0.01 µM
IC50 (MCF-7 cells; Homo sapiens, MCF7, 48 h): 3.4 µM
Emax (MCF-7 cells; Homo sapiens): 90.6%
IC50 (MCF-7 cells): 3.44 ± 1.11 µM
IC50 (HDAC4): > 10 µM
IC50 (N2A cells): 3.2 ± 0.1 µM
IC50 (SKOV3 cells): 4.5 ± 0.1 µM
IC50 (MDA-MB 231 cells): 0.51 ± 0.02 µM
acetylation of tubulin (Western blot) [1]: induced acetylated tubulin levels in a dose-dependent manner
IC50 (PANC1 cells): 12.8 ± 0.75 µM
IC50 (EMT 6 cells): 1.3 ± 0.3 µM
acetylation level of tubulin (Western blot) at 10 µM ([2]; 10 µM, cell line not named): increased acetylation level of tubulin
acetylation of tubulin (Western blot) ([2]; MCF-7, 6 h, 10, 2, and 0.2 µM): induced acetylated tubulin levels in a dose-dependent manner
Selective Fold (Ratio) HDAC3/ HDAC6 (HDAC6; ratio of IC50): 7.9 fold and 7.94 fold
Selective Fold (Ratio) HDAC4/ HDAC6 (HDAC6; ratio of IC50): >29.4 fold
Selective Fold (Ratio) HDAC8/ HDAC6 (HDAC6; ratio of IC50): 2.3 fold and 2.32 fold
Selective Fold (Ratio) HDAC11/ HDAC6 (HDAC6; ratio of IC50): >29.4 fold
IC50 (HDAC6; read-out: IC50 (µM) HDAC6 (Class IIb)): 2.3 µM and 0.3 µM
IC50 (Hepa1c1c7 cells): 1.3 ± 0.2 µM

O=C(CCCCSc1nc2ccccc2c(=O)n1Cc1cccc(F)c1)NO [Compound 9]
melting point: 145 to 147 °C
IC50 (MCF-7 cells; Homo sapiens, MCF7, 48 h): 36.9 ± 1.12 µM
Emax (MCF-7 cells; Homo sapiens): 96.8%
antiproliferative activity (in words) (MCF-7 cells; MCF-7): loss of activity

O=C(CCCCSc1nc2ccccc2c(=O)n1Cc1ccc(-c2ccccc2)cc1)NO [Compound 10]
melting point: 180 to 182 °C
IC50 (MCF-7 cells; Homo sapiens, MCF7, 48 h): 14.2 ± 1.14 µM
Emax (MCF-7 cells; Homo sapiens): 89.7%

O=C(CN1CCN(CCn2c(-c3ccc(F)cc3)nc3ccccc3c2=O)CC1)NO [Compound 11]
melting point: 120 to 122 °C

COc1ccc(-c2nc3ccccc3c(=O)n2CCCCC(=O)NO)cc1 [Compound 13]
melting point: 173 to 175 °C
IC50 (MCF-7 cells; Homo sapiens, MCF7, 48 h): 37.3 ± 1.21 µM
Emax (MCF-7 cells; Homo sapiens): 95.8%

O=C(CCCCn1c(-c2ccc(F)cc2)nc2ccccc2c1=O)NO [Compound 14]
melting point: 156 to 158 °C
IC50 (MCF-7 cells; Homo sapiens, MCF7, 48 h): 37.9 ± 1.71 µM
Emax (MCF-7 cells; Homo sapiens): 100%

O=C(CCCCn1c(-c2ccco2)nc2ccccc2c1=O)NO [Compound 15]
melting point: 195 to 197 °C
Emax (MCF-7 cells; Homo sapiens): 1.5%
